Several values for one entry are separate records, joined by “and”; a condition that tells them apart may be missing. Equal entries are not always repeated. Where two headings read alike, the source gives them in different places.
Biological target: T1, human muscarinic acetylcholine M3 receptor (M3-ACh) (Homo sapiens, UniProt P20309)
T1 construct: expressed in transfected cells; host or cells: CHO-K1 (Chinese Hamster Ovary) cell membranes
Test: biochemical
Assay type: binding

[1] = pIC50 (M3 Binding IC50 classes)
[2] = read-out: pIC50 (M3 Binding IC50 classes) (converted)

T1 sequence (P20309 whole entry): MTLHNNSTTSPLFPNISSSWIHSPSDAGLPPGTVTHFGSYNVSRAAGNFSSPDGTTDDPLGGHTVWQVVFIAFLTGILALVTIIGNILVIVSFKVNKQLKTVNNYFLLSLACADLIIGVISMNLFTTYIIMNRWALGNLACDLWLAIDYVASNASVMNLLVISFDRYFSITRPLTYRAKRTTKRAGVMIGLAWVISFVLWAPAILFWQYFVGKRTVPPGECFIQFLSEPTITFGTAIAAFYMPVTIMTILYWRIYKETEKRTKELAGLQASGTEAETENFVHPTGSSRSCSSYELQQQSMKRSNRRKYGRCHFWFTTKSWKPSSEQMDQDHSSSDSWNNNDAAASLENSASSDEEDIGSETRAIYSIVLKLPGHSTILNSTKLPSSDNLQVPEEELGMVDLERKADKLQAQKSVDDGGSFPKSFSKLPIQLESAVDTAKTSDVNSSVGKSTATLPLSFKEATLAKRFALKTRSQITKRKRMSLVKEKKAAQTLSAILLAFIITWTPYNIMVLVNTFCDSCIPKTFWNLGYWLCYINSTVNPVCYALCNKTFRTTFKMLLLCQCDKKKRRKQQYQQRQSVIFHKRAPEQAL

SMILES | IC50 [1] [nM] | IC50 [2]
CC(C(=O)O[C@H]1C[N+]2(CCc3cccc(Cl)c3)CCC1CC2)(c1ccccc1)N1CCOCC1 (single isomer, unassigned) [Example 79] | < 2 | –
CC(C(=O)O[C@H]1C[N+]2(CCc3ccccc3)CCC1CC2)(c1ccccc1)N1CCSCC1 (single isomer, unassigned) [Example 103] | < 2 | –
CC1(C)CN(C(C)(C(=O)O[C@H]2C[N+]3(CCCOc4ccccc4)CCC2CC3)c2ccc(Cl)cc2)C1 (single isomer, unassigned) [Example 47] | < 2 | –
C[C@@](C(=O)O[C@H]1C[N+]2(CC(=O)c3cccc(Cl)c3)CCC1CC2)(c1ccccc1)N1CCCCC1 [Example 6, (3R)-1-[2-(3-Chlorophenyl)-2-oxoethyl]-3-{[(2S)-2-phenyl-2-piperidin-1-ylpropanoyl]oxy}-1-azoniabicyclo[2.2.2]octane bromide] | < 2 | –
CC(C(=O)O[C@H]1C[N+]2(CCCOc3ccccc3)CCC1CC2)(c1ccccc1)N1CCCCCC1 (single isomer, unassigned) [Example 97] | < 2 | –
CC(C(=O)O[C@H]1C[N+]2(CCCc3ccccc3)CCC1CC2)(c1ccccc1)N1CCCCCC1 (single isomer, unassigned) [Example 95] | – | < 2 nM
CC(C(=O)O[C@H]1C[N+]2(CC(=O)c3cccc(F)c3)CCC1CC2)(c1cccs1)N1CCCCC1 (single isomer, unassigned) [Example 67] | < 2 | –
C[C@@](C(=O)O[C@H]1C[N+]2(CC[C@H](O)c3ccccc3)CCC1CC2)(c1ccccc1)N1CCCCC1 [Example 38] | < 2 | –
C[C@@](C(=O)O[C@H]1C[N+]2(CC(=O)c3cccc(F)c3)CCC1CC2)(c1ccccc1)N1CCCCC1 [Example 7, (3R)-1-[2-(3-Fluorophenyl)-2-oxoethyl]-3-{[(2S)-2-phenyl-2-piperidin-1-ylpropanoyl]oxy}-1-azoniabicyclo[2.2.2]octane bromide] | < 2 | –
CC(C(=O)O[C@H]1C[N+]2(CCCc3ccccc3)CCC1CC2)(c1ccccc1)N1CCCCCC1 (single isomer, unassigned) [Example 94] | < 2 | –
Cc1cc(OCCC[N+]23CCC(CC2)[C@@H](OC(=O)C(C)(c2cccs2)N2CCCCC2)C3)cc(C)n1 (single isomer, unassigned) [Example 81] | 2 to 10 | –
CN(C(=O)C[N+]12CCC(CC1)[C@@H](OC(=O)C(C)(c1cccs1)N1CCCCC1)C2)c1cccc(F)c1 (single isomer, unassigned) [Example 109] | 2 to 10 | –
CC(C(=O)O[C@H]1C[N+]2(CCCc3cccnc3)CCC1CC2)(c1ccccc1)N1CCCCCC1 (single isomer, unassigned) [Example 96] | < 2 | –
Cc1ccc(OCC[N+]23CCC(CC2)[C@@H](OC(=O)C(C)(c2cccs2)N2CCCCC2)C3)c(C)n1 (single isomer, unassigned) [Example 66] | 2 to 10 | –
CC(C(=O)O[C@H]1C[N+]2(CCc3cccc(F)c3)CCC1CC2)(c1ccccc1)N1CCCCCC1 (single isomer, unassigned) [Example 92] | < 2 | –
CC1(C)CN(C(C)(C(=O)O[C@H]2C[N+]3(CCCOc4ccccc4)CCC2CC3)c2ccc(Cl)cc2)C1 (single isomer, unassigned) [Example 46] | > 10 | –

SMILES | IC50 [1] [nM] | IC50 [2]
CC1(C)CN(C(C)(C(=O)O[C@H]2C[N+]3(CCCOc4ccccc4)CCC2CC3)c2ccccc2)C1 (single isomer, unassigned) [Example 48] | 2 to 10 | –
CCOC(=O)Cc1csc(NC(=O)C[N+]23CCC(CC2)[C@@H](OC(=O)[C@](C)(c2ccccc2)N2CCCCC2)C3)n1 [Example 19, (3R)-1-(2-{[4-(2-Ethoxy-2-oxoethyl)-1,3-thiazol-2-yl]amino}-2-oxoethyl)-3-{[(2S)-2-phenyl-2-piperidin-1-ylpropanoyl]oxy}-1-azoniabicyclo[2.2.2]octane chloride] | 2 to 10 | –
Cc1cnc(NC(=O)C[N+]23CCC(CC2)[C@@H](OC(=O)C(C)(c2cccs2)N2CCCCC2)C3)cn1 (single isomer, unassigned) [Example 76] | < 2 | –
CC(C(=O)O[C@H]1C[N+]2(CCCc3cccnc3)CCC1CC2)(c1ccccc1)N1CCSCC1 (single isomer, unassigned) [Example 106] | 2 to 10 | –
CC(C(=O)O[C@H]1C[N+]2(CC(=O)Nc3ccc(C(F)(F)F)cn3)CCC1CC2)(c1cccs1)N1CCCCC1 (stereo partly drawn) [Example 84, (3R)-1-(2-Oxo-2-{[5-(rifluoromethyl)pyridin-2-yl]amino}ethyl)-3-{[2-piperidin-1-yl-2-(2-thienyl)propanoyl]oxy}-1-azoniabicyclo[2.2.2]octane bromide] | – | 2 to 10 nM and < 2 nM
CC(C(=O)O[C@H]1C[N+]2(CC(=O)Nc3cccc(F)c3)CCC1CC2)(c1ccccc1)N1CCCCCC1 (single isomer, unassigned) [Example 88] | < 2 | –
CC(C(=O)O[C@H]1C[N+]2(CCCc3ccccc3)CCC1CC2)(c1cccs1)N1CCSCC1 (single isomer, unassigned) [Example 50] | < 2 | –
C[C@@](C(=O)O[C@H]1C[N+]2(CC(=O)c3sccc3Cl)CCC1CC2)(c1ccccc1)N1CCCCC1 [Example 4, (3R)-1-[2-(3-Chloro-2-thienyl)-2-oxoethyl]-3-{[(2S)-2-phenyl-2-piperidin-1-ylpropanoyl]oxy}-1-azoniabicyclo[2.2.2]octane bromide] | 2 to 10 | –
CC(C(=O)O[C@H]1C[N+]2(CC(=O)Nc3cnccn3)CCC1CC2)(c1cccs1)N1CCSCC1 (single isomer, unassigned) [Example 54] | < 2 | –
COc1cccc(C(=O)C[N+]23CCC(CC2)[C@@H](OC(=O)[C@](C)(c2ccccc2)N2CCCCC2)C3)c1 [Example 8, (3R)-1-[2-(3-Methoxyphenyl)-2-oxoethyl]-3-{[(2S)-2-phenyl-2-piperidin-1-ylpropanoyl]oxy}-1-azoniabicyclo[2.2.2]octane bromide] | < 2 | –
CC(C(=O)O[C@H]1C[N+]2(CCc3cccc(Cl)c3)CCC1CC2)(c1ccccc1)N1CCSCC1 (single isomer, unassigned) [Example 98] | < 2 | –
Cc1nc(-c2ccc(OCC[N+]34CCC(CC3)[C@@H](OC(=O)[C@](C)(c3ccccc3)N3CCCCC3)C4)cc2)no1 [Example 43, (3R)-1-{2-[4-(5-Methyl-1,2,4-oxadiazol-3-yl)phenoxy]ethyl}-3-{[(2S)-2-phenyl-2-piperidin-1-ylpropanoyl]oxy}-1-azoniabicyclo[2.2.2]octane bromide] | 2 to 10 | –
Cc1ccc(C(=O)C[N+]23CCC(CC2)[C@@H](OC(=O)[C@](C)(c2ccccc2)N2CCCCC2)C3)cc1 [Example 17, (3R)-1-[2-(4-Methylphenyl)-2-oxoethyl]-3-{[(2S)-2-phenyl-2-piperidin-1-ylpropanoyl]oxy}-1-azoniabicyclo[2.2.2]octane bromide] | < 2 | –
C[C@@](C(=O)O[C@H]1C[N+]2(CC(=O)c3ccc(F)cc3F)CCC1CC2)(c1ccccc1)N1CCCCC1 [Example 5, (3R)-1-[2-(2,4-Difluorophenyl)-2-oxoethyl]-3-{[(2S)-2-phenyl-2-piperidin-1-ylpropanoyl]oxy}-1-azoniabicyclo[2.2.2]octane chloride] | 2 to 10 | –
CC(C(=O)O[C@H]1C[N+]2(Cc3nc(-c4ccccc4)no3)CCC1CC2)(c1cccs1)N1CCSCC1 (single isomer, unassigned) [Example 56] | < 2 | –
Cc1cnc(NC(=O)C[N+]23CCC(CC2)[C@@H](OC(=O)C(C)(c2ccccc2)N2CCCCCC2)C3)cn1 (single isomer, unassigned) [Example 91] | < 2 | –
